Experimental data published in paper PMC12305662, “Fragment-Based Development of Small Molecule Inhibitors Targeting Mycobacterium tuberculosis Cholesterol Metabolism” (Journal of Medicinal Chemistry, 2025).
Like-named read-outs stand apart in the source and are kept apart here.

What was measured:
CYP125 = CYP125 (Mycobacterium tuberculosis, UniProt P9WPP1); assay type: binding; conditions: for CYP125 Δλmax (nm) HS: high spin population, '-' = no HS maxima present; for CYP125 Δλmax (nm) LS: low spin population, '-' = no LS maxima present; for Δλmax (nm) CYP125, fragment screen: fragment 1 mM, P450 4-6 µM, Soret shift relative to DMSO (393 nm)
Sequence of CYP125 (P9WPP1 whole entry, the tested form may be a part): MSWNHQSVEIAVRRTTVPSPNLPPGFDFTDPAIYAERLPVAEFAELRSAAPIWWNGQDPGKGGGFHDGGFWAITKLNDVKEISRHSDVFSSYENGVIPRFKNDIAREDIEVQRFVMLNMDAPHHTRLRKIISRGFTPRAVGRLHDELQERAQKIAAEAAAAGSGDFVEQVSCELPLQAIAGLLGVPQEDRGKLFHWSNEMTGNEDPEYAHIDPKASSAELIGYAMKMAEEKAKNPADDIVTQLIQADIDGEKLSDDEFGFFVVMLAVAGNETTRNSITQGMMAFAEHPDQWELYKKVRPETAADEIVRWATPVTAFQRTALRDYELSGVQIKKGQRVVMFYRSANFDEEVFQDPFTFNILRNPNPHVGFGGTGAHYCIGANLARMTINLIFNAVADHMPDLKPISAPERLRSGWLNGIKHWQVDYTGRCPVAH

CYP142 = CYP142 (Mycobacterium tuberculosis, UniProt P9WPL5); conditions: for CYP142 Δλmax (nm): compound 100 µM, P450 5 µM; for Δλmax (nm) CYP142, fragment screen: fragment 1 mM, P450 4-6 µM, relative to DMSO (418.5 nm)
Sequence of CYP142 (P9WPL5 whole entry, the tested form may be a part): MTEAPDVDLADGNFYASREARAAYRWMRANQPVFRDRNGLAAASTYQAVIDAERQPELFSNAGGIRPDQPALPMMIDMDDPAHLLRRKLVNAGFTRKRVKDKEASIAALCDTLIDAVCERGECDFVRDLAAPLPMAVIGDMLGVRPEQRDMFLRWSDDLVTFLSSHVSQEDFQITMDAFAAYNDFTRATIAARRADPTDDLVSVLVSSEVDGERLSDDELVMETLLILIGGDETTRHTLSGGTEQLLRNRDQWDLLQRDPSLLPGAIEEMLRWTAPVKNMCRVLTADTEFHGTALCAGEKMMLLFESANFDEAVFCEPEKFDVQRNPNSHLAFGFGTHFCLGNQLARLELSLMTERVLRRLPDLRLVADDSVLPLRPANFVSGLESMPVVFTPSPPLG

CYP124 = CYP124 (Mycobacterium tuberculosis, UniProt P9WPP3); conditions: fragment 1 mM, P450 4-6 µM; relative to DMSO (419 nm)
Sequence of CYP124 (P9WPP3 whole entry, the tested form may be a part): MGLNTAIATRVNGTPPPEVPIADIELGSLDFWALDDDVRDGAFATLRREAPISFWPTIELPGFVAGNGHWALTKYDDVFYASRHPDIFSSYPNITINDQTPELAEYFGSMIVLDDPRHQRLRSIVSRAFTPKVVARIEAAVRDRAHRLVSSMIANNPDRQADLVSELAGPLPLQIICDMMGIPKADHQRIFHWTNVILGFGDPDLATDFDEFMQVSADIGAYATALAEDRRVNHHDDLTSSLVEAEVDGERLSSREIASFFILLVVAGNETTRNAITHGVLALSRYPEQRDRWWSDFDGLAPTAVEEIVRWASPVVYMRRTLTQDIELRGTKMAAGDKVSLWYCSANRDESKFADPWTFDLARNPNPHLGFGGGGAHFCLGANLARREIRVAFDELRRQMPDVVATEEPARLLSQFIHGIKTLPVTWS

CYP126 = CYP126 (Mycobacterium tuberculosis, UniProt P9WPN9); conditions: fragment 1 mM, P450 4-6 µM; relative to DMSO (418 nm)
Sequence of CYP126 (P9WPN9 whole entry, the tested form may be a part): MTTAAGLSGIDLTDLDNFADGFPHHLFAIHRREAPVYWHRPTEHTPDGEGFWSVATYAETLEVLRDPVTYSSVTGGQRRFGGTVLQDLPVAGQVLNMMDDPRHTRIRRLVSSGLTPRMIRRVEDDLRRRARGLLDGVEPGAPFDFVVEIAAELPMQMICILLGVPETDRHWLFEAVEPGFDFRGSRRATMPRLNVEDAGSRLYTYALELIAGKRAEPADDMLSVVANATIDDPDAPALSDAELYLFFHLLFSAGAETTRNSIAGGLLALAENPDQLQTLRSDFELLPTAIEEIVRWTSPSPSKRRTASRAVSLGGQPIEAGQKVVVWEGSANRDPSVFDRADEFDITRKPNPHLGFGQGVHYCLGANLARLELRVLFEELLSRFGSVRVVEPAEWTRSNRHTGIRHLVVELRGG

CYP143 = CYP143 (Mycobacterium tuberculosis, UniProt P9WPL3); conditions: fragment 1 mM, P450 4-6 µM; relative to DMSO (416 nm)
Sequence of CYP143 (P9WPL3 whole entry, the tested form may be a part): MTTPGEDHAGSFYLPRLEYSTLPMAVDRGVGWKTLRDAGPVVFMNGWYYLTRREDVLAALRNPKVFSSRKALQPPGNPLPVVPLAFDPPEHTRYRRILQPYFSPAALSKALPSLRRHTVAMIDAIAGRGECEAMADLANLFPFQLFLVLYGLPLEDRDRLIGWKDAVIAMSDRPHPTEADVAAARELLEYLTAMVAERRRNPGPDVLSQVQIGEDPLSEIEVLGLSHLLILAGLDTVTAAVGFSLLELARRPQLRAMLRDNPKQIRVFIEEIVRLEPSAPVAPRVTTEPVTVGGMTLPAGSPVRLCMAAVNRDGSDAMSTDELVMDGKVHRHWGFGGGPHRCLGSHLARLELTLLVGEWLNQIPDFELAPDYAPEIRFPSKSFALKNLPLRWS

CYP144 = CYP144 (Mycobacterium tuberculosis, UniProt P9WPL1); conditions: fragment 1 mM, P450 4-6 µM; relative to DMSO (421 nm)
Sequence of CYP144 (P9WPL1 whole entry, the tested form may be a part): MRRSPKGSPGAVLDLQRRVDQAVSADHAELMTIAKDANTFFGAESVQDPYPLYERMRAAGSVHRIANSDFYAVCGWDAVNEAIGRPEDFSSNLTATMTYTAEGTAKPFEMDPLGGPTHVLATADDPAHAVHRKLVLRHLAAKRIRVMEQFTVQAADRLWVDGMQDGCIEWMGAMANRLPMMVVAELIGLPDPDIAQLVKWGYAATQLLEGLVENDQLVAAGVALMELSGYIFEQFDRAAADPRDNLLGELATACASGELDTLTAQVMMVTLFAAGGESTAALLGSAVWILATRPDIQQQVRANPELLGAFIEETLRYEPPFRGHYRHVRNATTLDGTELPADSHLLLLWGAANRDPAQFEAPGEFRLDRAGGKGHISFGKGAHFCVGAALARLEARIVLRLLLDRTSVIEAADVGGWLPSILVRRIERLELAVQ

CYP121 = CYP121 (Mycobacterium tuberculosis, UniProt P9WPP7); conditions: fragment 1 mM, P450 4-6 µM; relative to DMSO (417 nm)
Sequence of CYP121 (P9WPP7 whole entry, the tested form may be a part): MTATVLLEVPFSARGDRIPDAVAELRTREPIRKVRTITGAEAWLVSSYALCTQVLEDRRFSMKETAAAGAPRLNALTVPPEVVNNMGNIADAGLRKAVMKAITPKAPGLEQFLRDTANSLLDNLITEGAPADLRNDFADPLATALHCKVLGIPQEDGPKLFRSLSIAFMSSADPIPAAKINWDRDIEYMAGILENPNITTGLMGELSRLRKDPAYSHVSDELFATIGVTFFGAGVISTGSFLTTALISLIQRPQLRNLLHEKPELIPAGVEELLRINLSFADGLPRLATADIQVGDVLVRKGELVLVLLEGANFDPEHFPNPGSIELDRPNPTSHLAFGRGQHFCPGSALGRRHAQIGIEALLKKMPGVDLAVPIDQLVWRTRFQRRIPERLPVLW

[1] = compound 100 µM, P450 5 µM, ratio of low spin to high spin CYP125

Compound | CYP125 Δλmax (nm) HS (CYP125; compound 100 µM, P450 5 µM) [nm] | CYP125 Δλmax (nm) LS (CYP125; compound 100 µM, P450 5 µM) [nm] | CYP125 LS/HS (CYP125; [1]) | CYP142 Δλmax (nm) (CYP142) | Δλmax (nm) CYP125, fragment screen (CYP125) [nm] | Δλmax (nm) CYP142, fragment screen (CYP142) [nm] | Δλmax (nm) CYP124, fragment screen (CYP124) [nm] | Δλmax (nm) CYP126, fragment screen (CYP126) [nm] | Δλmax (nm) CYP143, fragment screen (CYP143) [nm] | Δλmax (nm) CYP144, fragment screen (CYP144) [nm] | Δλmax (nm) CYP121, fragment screen (CYP121) [nm] | CYP125 LS/HS (CYP125)
COc1cccc(Cc2ccncc2)c1 [3a, 4-(3-Methoxybenzyl)pyridine] | 1 | 27 | 1.1 | 2 | – | – | – | – | – | – | – | –
Nc1cccnc1O [compound 45] | – | – | – | – | 0 | 0 | 0 | 0 | 0 | 0 | – | –
COC(=O)c1ccc(Nc2ccncc2)cc1 [4d, Methyl 4-(pyridin-4-ylamino)benzoate] | 2 | 26 | 1 | 3 | – | – | – | – | – | – | – | –
CNCc1ccc(-c2ccncc2)cc1 [compound 52] | – | – | – | – | 28.5 | 1.5 | 2 | 0 | 4 | 0 | -1 | –
C#Cc1cccnc1 [compound 75] | – | – | – | – | 0 | 0 | 0 | 0 | 0 | 0 | 0 | –
Cc1cc(O)nnc1O [compound 24] | – | – | – | – | 0 | 0 | 0 | 0 | 0 | 0 | -1 | –
N#Cc1ncccc1F [compound 72] | – | – | – | – | 0 | 0 | 0 | 0 | 0 | 0 | 0 | –
COc1ncccc1N [compound 50] | – | – | – | – | 0 | 0 | 0 | 0 | 2.5 | 0 | 0 | –
O=[N+]([O-])c1ccc(Br)c2ccncc12 [compound 59] | – | – | – | – | 0 | 0 | 1 | 0 | – | 0 | – | –
Clc1ccc(Cl)nn1 [compound 27] | – | – | – | – | 0 | 0 | 0 | 0 | 0.5 | 0 | 0 | –
Cc1nn(-c2ccccc2)nc1C(=O)O [compound 18] | – | – | – | – | 0 | 0 | 0 | 0 | 0 | 0 | 0 | –
Brc1ccc(Nc2ccncc2)cc1 [4i, N-(4-Bromophenyl)pyridin-4-amine] | 2 | 29 | 1.2 | 4 | – | – | – | – | – | – | – | –
Brc1cccc(Nc2ccncc2)c1 [4h, N-(3-Bromophenyl)pyridin-4-amine] | – | 31 | 1.4 | 4 | – | – | – | – | – | – | – | –
OCc1ccc(Cn2cncn2)cc1 [compound 69] | – | – | – | – | 0 | 0 | 0 | 0 | 0 | 0 | 0 | –
Nn1cccc1C(=O)O [compound 62] | – | – | – | – | – | 0 | 0 | 0 | 4 | 0 | – | –
O=C(O)c1ccc(Nc2ccncc2)cc1 [4f, 4-(Pyridin-4-ylamino)benzoic Acid] | 1 | – | – | 0 | – | – | – | – | – | – | – | –
Cc1n[nH]cc1Br [compound 38] | – | – | – | – | 0 | 1.5 | 0 | 0 | 0 | 0 | 0 | –
c1ccc(N2CCOCC2)nc1 [compound 63] | – | – | – | – | 0 | 0 | 0 | 0 | 1 | 0 | 0 | –
3-(Pyridin-4-ylmethyl)aniline [3d] | 3 | 29 | – | – | – | – | – | – | – | – | – | –

Compound | CYP125 Δλmax (nm) HS (CYP125; compound 100 µM, P450 5 µM) [nm] | CYP125 Δλmax (nm) LS (CYP125; compound 100 µM, P450 5 µM) [nm] | CYP125 LS/HS (CYP125; [1]) | CYP142 Δλmax (nm) (CYP142) | Δλmax (nm) CYP125, fragment screen (CYP125) [nm] | Δλmax (nm) CYP142, fragment screen (CYP142) [nm] | Δλmax (nm) CYP124, fragment screen (CYP124) [nm] | Δλmax (nm) CYP126, fragment screen (CYP126) [nm] | Δλmax (nm) CYP143, fragment screen (CYP143) [nm] | Δλmax (nm) CYP144, fragment screen (CYP144) [nm] | Δλmax (nm) CYP121, fragment screen (CYP121) [nm] | CYP125 LS/HS (CYP125)
Nc1cccc(Nc2ccncc2)c1 [4a, N^1-(Pyridin-4-yl)benzene-1,3-diamine] | 1 | 22 | 0.9 | 3 | – | – | – | – | – | – | – | –
Nc1ccc(Cc2ccncc2)cc1 [3e] | 3 | 29 | – | 3 | – | – | – | – | – | – | – | 1.7
O=C(O)c1cccc(Nc2ccncc2)c1 [4e, 3-(Pyridin-4-ylamino)benzoic Acid] | 0 | – | – | 0 | – | – | – | – | – | – | – | –
Clc1cccnc1Cl [compound 61] | – | – | – | – | – | 0 | 0 | 0 | 0 | 0 | 0 | –
Nc1ccc(Nc2ccncc2)cc1 [4b, N^1-(Pyridin-4-yl)benzene-1,4-diamine] | 1 | 31 | 1.3 | 3 | – | – | – | – | – | – | – | –
COc1ncccc1C(=O)O [compound 65] | – | – | – | – | – | 0 | 0 | 0 | 1 | 0 | 0 | –
COc1ccc(Cc2ccncc2)cc1 [3b, 4-(4-Methoxybenzyl)pyridine] | 1 | 25 | 1 | 2 | – | – | – | – | – | – | – | –
c1ccc(CCc2ccncc2)cc1 [2h, 4-Phenethylpyridine] | 2 | 26 | 1 | 2 | – | – | – | – | – | – | – | –
COC(=O)c1cccc(Nc2ccncc2)c1 [4c, Methyl/Ethyl 3-(pyridin-4-ylamino)benzoate] | 1 | 27 | 1 | 3 | – | – | – | – | – | – | – | –
O=C(c1ccccc1)c1ccncc1 [2f] | 0 | – | – | 0 | – | – | – | – | – | – | – | –
Clc1nccc2ccc(Br)cc12 [compound 37] | – | – | – | – | 0 | 0 | 0 | 0 | – | 0 | -3 | –
C(=C\c1ccncc1)/c1ccccc1 [2g, (E)-4-Styrylpyridine] | – | 29 | 1.4 | 3 | – | – | – | – | – | – | – | –
OCc1cccc(Nc2ccncc2)c1 [4g] | 0 | – | – | 1 | – | – | – | – | – | – | – | –
O=S(=O)(c1ccccc1)c1ccncc1 [2e, 4-(Phenylsulfonyl)pyridine] | 0 | – | – | 0 | – | – | – | – | – | – | – | –
c1ccc(Oc2ccncc2)cc1 [2d, 4-Phenoxypyridine] | 1 | 25 | 1 | 2 | – | – | – | – | – | – | – | –
Nc1cccnc1N [compound 66] | – | – | – | – | – | 0 | 0 | 0 | 0 | 0 | – | –
CN(c1ccccc1)c1ccncc1 [2b, N-Methyl-N-phenylpyridin-4-amine] | 1 | 25 | 0.9 | 4 | – | – | – | – | – | – | – | –
c1ccc(N(c2ccccc2)c2ccncc2)cc1 [2c, N,N-Diphenylpyridin-4-amine] | 2 | 28 | 1 | 4 | – | – | – | – | – | – | – | –
